Earlier results in US20170348276A1 (Acerus Pharmaceutical Corporation, priority 2016, published 2017).

Tests used:
[1] = percent of the activity of Δ9-THC

Compound: CCCCCc1cc(O)c2c(c1)OC(C)(C)c1ccc(C)cc1-2 [Cannabinol (CBN), Cannabinol]
- activity relative to Δ9-THC [1]: 10%

Compound: C=C(C)[C@@H]1CCC(C)=C[C@H]1c1c(O)cc(CCCCC)cc1O [CBD, Cannabidiol]
- Bioavailability from oil-based oral delivery (oil-based capsule, oral): ~6%
- oral bioavailability (oral administration, extensive first pass hepatic metabolism): < 5%
- bioavailability, oral-mucosal/sublingual delivery (sprays/lozenges): up to 12%
